EP4201929A1, “QUINOXALINE THIOREDOXIN REDUCTASE INHIBITORS” (geneXplain GmbH, priority 2021, dated 2023)

Experiments:
Format in all cases: cell-based
H23 = assay: Growth suppression, cancer cell line panel (resazurin); conditions: H23 lung, 48 hours
Protocol: (§1) Breast, colon, ovarian, cervical, liver and lung carcinoma cell lines were grown in DMEM supplemented with 10% FBS, and antibiotics were cultured at 37 °C and 5% CO2. Osteosarcoma, melanoma, lymphoma, neuroblastoma and leukemia cell lines were cultured in RPMI 1640 with 10% FBS and antibiotics. An oxygen concentration of 0.3% was obtained by flushing a sealed box containing the cells with premixed gas composed of 95% nitrogen (N2) and 5% CO2 (AGA AB, Sweden). To obtain an oxygen concentration of 0.05%, the cells were flushed with the premixed gas continuously throughout the experiment.
(§2) Cells were grown in 96-well plates at a density of 3000 cells per well with or without doxycycline and treated with compounds. After 48 hours of incubation the proliferative cell reagent resazurin (Thermo Fisher Scientific) was added to the cells. The degree of resazurin reduction, which reflects cell viability, was measured by microplate reader by monitoring the absorbance at 570 nm and 600 nm, according to the manufacturer.
(§3) Growth suppression by the soluble compound 1d*HCl in a panel of 27 cancer cell lines. The panel of cancer cell lines, including carcinomas of breast (MDA-MB231, SKBR3, T47D, MCF7; BT549, BT20, MDA-MB468), colon, (SW480, RKO, HT29, HCT116) ovarian (OVCAR3, OVCAR4, OVCAR8), cervical (SW756, C33A), liver (HEPG2) and lung (H23), osteosarcoma (SJSA and U2OS), melanoma (ME180), lymphoma (Raji, HDLM2), neuroblastoma (SKNAS, IMR32) and leukemia (NB4, K562) were treated with increasing concentrations of 1d*HCl: 0.4; 0.8; 1.6; 3.2; 6.4; 12.8; 25.6 µM in 96-well plates. After 48 hours of incubation the proliferative cell reagent resazurin was added to the cells. The degree of resazurin reduction, which reflects cell viability, was measured by microplate reader by monitoring the absorbance at 570 nm and 600 nm, according to the manufacturer, and the IC50 and AUC (area under curve) were determined (Table 2). As could be seen in Table 2, 1d*HCl suppressed the growth of cancer cell lines of a different origin, including carcinomas, osteosarcomas, melanoma, lymphoma, leukemia and neuroblastoma. These findings open up a possibility of the application of the present invention in anti-cancer therapy in a broad range of tumor types. Table 2: a) Breast cancer

C33A = assay: as above; conditions: C33A cervical, 48 hours
Protocol: as §1, §2, §3

NB4 = assay: as above; conditions: NB4 leukemia, 48 hours
Protocol: as §1, §2, §3

HT29 = assay: as above; conditions: HT29 colon, 48 hours
Protocol: as §1, §2, §3

MCF7 = assay: as above; conditions: MCF7 breast, 48 hours
Protocol: as §1, §2, §3

HepG2 = assay: as above; conditions: HepG2 liver, 48 hours
Protocol: as §1, §2, §3

SKNAS = assay: as above; conditions: SKNAS neuroblastoma, 48 hours
Protocol: as §1, §2, §3

BT549 = assay: as above; conditions: BT549 breast, 48 hours
Protocol: as §1, §2, §3

K562 = assay: as above; conditions: K562 leukemia, 48 hours
Protocol: as §1, §2, §3

SW756 = assay: as above; conditions: SW756 cervical, 48 hours
Protocol: as §1, §2, §3

IMR32 = assay: as above; conditions: IMR32 neuroblastoma, 48 hours
Protocol: as §1, §2, §3

MDA-MB-468 = assay: as above; conditions: MDA-MB-468 breast, 48 hours
Protocol: as §1, §2, §3

U2OS = assay: as above; conditions: U2OS osteosarcoma, 48 hours
Protocol: as §1, §2, §3

BT20 = assay: as above; conditions: BT20 breast, 48 hours
Protocol: as §1, §2, §3

GR = GR (Homo sapiens, UniProt P00390); assay: GR activity in cells
Source text: Having established that 1d*HCl inhibits TrxR1activity in vitro, it was important to confirm that 1d*HCl targets TrxRl in living cells. Therefore, we tested whether 1d*HCl is able to inhibit the enzymatic activity of TrxRl in MCF7 breast cancer cells. […] In contrast, GR activity was not inhibited by 1d*HCl in cells, which is in line with the in vitro results. Thus, we conclude that 1d*HCl selectively targets TrxRl in cancer cells and inhibits its activity, leading to the induction of ROS and oxidative stress.

[1] = Growth suppression with selenium in culture medium; conditions: selenium added to culture medium
Source text: To find out whether the inhibition of TrxRl is the major mechanism of action of 1d*HCl, we addressed the question, whether stimulation of TrxRl activity will decrease the growth suppression activity of 1d*HCl. Since TrxR is a selenium-containing enzyme and the concentration of selenium is rate-limiting for TrxRl, we added selenium to culture medium to test whether selenium will alleviate the growth suppression by 1d*HCl.

cancer cells = assay: Cell growth assay in combination with BSO
Protocol: Further, we tested whether the inhibition of GR by BSO will have additive effect with 1d*HCl. If 1d*HCl mechanism of action includes inhibition of GR, BSO will not have an additive effect. We used a range of concentrations of 1d*HCl and BSO in cell growth assays.
Next, we tested whether the prevention of oxidative stress by NAC will affect the growth suppression by the combination of 1d*HCl and BSO. In the presence of NAC we observed the additive effect of 1d*HCl with 50 µM BSO only at twice higher dose of 1d*HCl - 10 µM.

[2] = Homo sapiens, resazurin, read-out: ICso

Sequence of GR (P00390 44-522): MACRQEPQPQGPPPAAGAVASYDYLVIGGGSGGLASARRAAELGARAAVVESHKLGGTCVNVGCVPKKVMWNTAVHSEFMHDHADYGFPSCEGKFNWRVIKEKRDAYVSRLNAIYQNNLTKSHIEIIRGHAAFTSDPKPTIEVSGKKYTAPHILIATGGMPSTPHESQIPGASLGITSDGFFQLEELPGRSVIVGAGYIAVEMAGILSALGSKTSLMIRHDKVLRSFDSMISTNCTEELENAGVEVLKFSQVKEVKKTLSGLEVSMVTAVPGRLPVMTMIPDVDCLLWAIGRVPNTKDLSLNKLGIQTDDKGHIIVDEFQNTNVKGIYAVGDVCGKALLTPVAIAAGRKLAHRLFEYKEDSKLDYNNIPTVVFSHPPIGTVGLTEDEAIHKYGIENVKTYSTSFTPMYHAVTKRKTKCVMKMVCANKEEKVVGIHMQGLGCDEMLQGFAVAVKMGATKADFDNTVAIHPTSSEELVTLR

With `Cl.N#Cc1c(-c2cccnc2)[n+]([O-])c2cc(F)c(N3CCOCC3)cc2[n+]1[O-]` [1d*HCl, 6-Fluoro-7-(morpholin-4-yl)-3-(pyridin-3-yl)quinoxaline-2-carbonitrile-1,4-dioxide hydrochloride] the AUC (H23; area under curve, 0.4-25.6 µM) was 5,38, the IC50 (H23; Homo sapiens, NCI-H23, resazurin, read-out: ICso) was 3.54 µM and the IC50 (C33A; resazurin) was “variable”. For the same compound, the AUC (C33A; area under curve, 0.4-25.6 µM) was 21, the IC50 (NB4; resazurin) was “variable” and the AUC (NB4; area under curve, 0.4-25.6 µM) was 25,4. The AUC (HT29; area under curve, 0.4-25.6 µM) was 4,77, the IC50 (HT29; Homo sapiens, HT-29, resazurin) was 3.5 µM and the IC50 (MCF7; Homo sapiens, resazurin) was 2.54 µM. For the same compound, the AUC (MCF7; area under curve, 0.4-25.6 µM) was 3,64, the AUC (HepG2; area under curve, 0.4-25.6 µM) was 4,54 and the IC50 (HepG2; [2]) was 3.59 µM. For the same compound, the IC50 (SKNAS; Homo sapiens, SK-N-AS, resazurin, read-out: ICso) was 4.68 µM, the AUC (SKNAS; area under curve, 0.4-25.6 µM) was 7,73 and the AUC (BT549; area under curve, 0.4-25.6 µM) was 2,52. For the same compound, the IC50 (BT549; Homo sapiens, BT-549, resazurin) was 1.7 µM, the IC50 (K562; Homo sapiens, resazurin) was 2.95 µM and the AUC (K562; area under curve, 0.4-25.6 µM) was 4,39. For the same compound, the IC50 (SW756; Homo sapiens, resazurin) was 1.54 µM, the AUC (SW756; area under curve, 0.4-25.6 µM) was 2,84 and the IC50 (IMR32; Homo sapiens, IMR-32, resazurin, read-out: ICso) was 5.15 µM. The AUC (IMR32; area under curve, 0.4-25.6 µM) was 6,40, the IC50 (MDA-MB-468; Homo sapiens, resazurin) was 2.78 µM and the AUC (MDA-MB-468; area under curve, 0.4-25.6 µM) was 4,04. For the same compound, the IC50 (U2OS; [2]) was 1.04 µM, the AUC (U2OS; area under curve, 0.4-25.6 µM) was 2,10 and the AUC (BT20; area under curve, 0.4-25.6 µM) was 9,64. The IC50 (BT20; Homo sapiens, BT-20, resazurin) was 5.91 µM, the “GR activity in cells” value (GR) was “not inhibited” and the “growth suppression in the presence of selenium” value [1] was “less efficient”. For the same compound, the “effect of combination with BSO on cell growth” value (cancer cells; 5 µM 1d*HCl with 50 µM BSO) was “have an additive effect and completely eradicated cancer cells” and the “dose of 1d*HCl at which additive effect with 50 µM BSO is observed” value (cancer cells; in the presence of NAC) was 10 µM.
